# Measurements as given in ChEMBL document CHEMBL5463723, “Data for DCP probe BIBO3304” (2023).
# Legend:
# [1] = molecular target: T1, Neuropeptide Y receptor type 2 (Homo sapiens, UniProt P49146); assay: Radioligand binding assay (NPY2R, SMS-KAN cells); format: cell-based
# T1 sequence (P49146 whole entry): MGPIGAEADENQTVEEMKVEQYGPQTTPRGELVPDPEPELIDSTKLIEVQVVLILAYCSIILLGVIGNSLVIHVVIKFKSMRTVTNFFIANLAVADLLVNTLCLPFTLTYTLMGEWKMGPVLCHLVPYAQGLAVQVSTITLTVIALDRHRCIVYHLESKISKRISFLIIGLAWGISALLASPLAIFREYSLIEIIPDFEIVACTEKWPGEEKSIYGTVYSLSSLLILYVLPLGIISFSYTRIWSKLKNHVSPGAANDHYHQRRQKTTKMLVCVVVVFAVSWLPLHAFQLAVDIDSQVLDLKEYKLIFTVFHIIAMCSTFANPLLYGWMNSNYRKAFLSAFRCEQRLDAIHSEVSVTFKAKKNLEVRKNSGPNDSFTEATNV
# [2] = molecular target: T1, Neuropeptide Y receptor type 2; assay: Radioligand binding assay (NPY2R, BHK); format: cell-based, BHK-21
# [3] = molecular target: Neuropeptide Y receptor type 4 (Rattus norvegicus, UniProt Q63447); assay: Radioligand binding assay (rat NPY4R, CHO cells); format: cell-based
# [4] = molecular target: Neuropeptide Y receptor type 4 (Homo sapiens, UniProt P50391); assay: Radioligand binding assay (human NPY4R, CHO cells); format: cell-based
# [5] = molecular target: Neuropeptide Y receptor type 5 (Rattus norvegicus, UniProt Q63634); assay: Radioligand binding assay (rat NPY5R, CHO cells); format: cell-based
# [6] = molecular target: Neuropeptide Y receptor type 5 (Homo sapiens, UniProt Q15761); assay: Radioligand binding assay (human NPY5R, HEK293); format: cell-based
# Chain of Neuropeptide Y receptor type 5 (Homo sapiens, UniProt Q15761) (Q15761 whole entry): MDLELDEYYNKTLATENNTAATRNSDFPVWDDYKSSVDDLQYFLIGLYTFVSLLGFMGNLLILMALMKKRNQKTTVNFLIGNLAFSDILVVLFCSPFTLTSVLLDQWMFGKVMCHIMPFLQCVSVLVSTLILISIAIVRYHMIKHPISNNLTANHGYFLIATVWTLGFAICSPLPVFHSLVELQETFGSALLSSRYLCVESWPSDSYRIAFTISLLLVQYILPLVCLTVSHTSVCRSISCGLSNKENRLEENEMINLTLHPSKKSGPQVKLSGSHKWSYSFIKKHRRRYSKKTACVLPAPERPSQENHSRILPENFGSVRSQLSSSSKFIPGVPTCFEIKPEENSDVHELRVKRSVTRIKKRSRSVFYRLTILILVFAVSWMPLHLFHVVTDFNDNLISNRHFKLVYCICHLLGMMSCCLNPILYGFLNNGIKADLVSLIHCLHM
# Chain of Neuropeptide Y receptor type 4 (Homo sapiens, UniProt P50391) (P50391 whole entry): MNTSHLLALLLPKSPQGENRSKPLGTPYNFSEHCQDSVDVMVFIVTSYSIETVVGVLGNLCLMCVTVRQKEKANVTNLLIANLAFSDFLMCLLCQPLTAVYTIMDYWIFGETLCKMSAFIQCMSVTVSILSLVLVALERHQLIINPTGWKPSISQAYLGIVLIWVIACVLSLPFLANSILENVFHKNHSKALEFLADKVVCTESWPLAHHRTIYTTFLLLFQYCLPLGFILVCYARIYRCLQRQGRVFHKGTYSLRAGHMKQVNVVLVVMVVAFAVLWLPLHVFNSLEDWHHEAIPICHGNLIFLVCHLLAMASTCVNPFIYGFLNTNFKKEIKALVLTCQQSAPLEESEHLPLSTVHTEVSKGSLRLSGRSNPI
# Chain of Neuropeptide Y receptor type 5 (Rattus norvegicus, UniProt Q63634) (Q63634 whole entry): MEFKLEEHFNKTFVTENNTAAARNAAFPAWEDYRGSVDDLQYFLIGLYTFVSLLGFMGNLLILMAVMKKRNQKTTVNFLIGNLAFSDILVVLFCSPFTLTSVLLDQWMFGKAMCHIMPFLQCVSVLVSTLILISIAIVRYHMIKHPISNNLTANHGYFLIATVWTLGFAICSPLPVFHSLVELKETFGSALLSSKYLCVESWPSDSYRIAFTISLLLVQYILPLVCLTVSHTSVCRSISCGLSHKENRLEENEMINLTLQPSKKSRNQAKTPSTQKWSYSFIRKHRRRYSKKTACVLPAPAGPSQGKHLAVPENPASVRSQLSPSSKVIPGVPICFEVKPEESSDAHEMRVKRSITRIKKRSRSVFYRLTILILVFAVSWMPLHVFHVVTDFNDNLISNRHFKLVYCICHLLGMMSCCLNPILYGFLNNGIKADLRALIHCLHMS
# Chain of Neuropeptide Y receptor type 4 (Rattus norvegicus, UniProt Q63447) (Q63447 whole entry): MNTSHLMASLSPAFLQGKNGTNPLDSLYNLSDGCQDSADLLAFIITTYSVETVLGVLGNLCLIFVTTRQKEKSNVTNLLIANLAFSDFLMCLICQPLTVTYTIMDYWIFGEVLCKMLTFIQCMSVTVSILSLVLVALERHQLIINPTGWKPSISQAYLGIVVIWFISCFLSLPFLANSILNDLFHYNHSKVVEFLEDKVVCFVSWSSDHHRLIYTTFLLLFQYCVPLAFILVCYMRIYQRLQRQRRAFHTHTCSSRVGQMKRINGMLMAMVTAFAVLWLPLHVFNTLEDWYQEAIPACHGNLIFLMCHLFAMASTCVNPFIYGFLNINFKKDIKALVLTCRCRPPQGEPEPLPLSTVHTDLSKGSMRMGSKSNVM
compound,measurement,setting,value
N=C(N)NCCC[C@H](NC(=O)C(c1ccccc1)c1ccccc1)C(=O)NCc1ccc(CNC(N)=O)cc1,IC50,[1],> 10 µM (not active)
same,IC50,[2],> 10 µM (not active)
same,IC50,[3],> 10 µM (not active)
same,IC50,[4],24 µM (not active)
same,IC50,[5],23 µM (not active)
same,IC50,[6],28 µM (not active)
